The text below walks through data of US20100158808A1, “Altered Activity of Toll-Like Receptors” (priority 2003, published 2010).

Assay [1] has as its system TLR4. As to the kind of experiment: Serum TNF-α after i.p. injection in mice, ELISA. The assay is classed as in vivo. On the procedure: Cytokine Quantification. Age-matched female mice were injected in the peritoneum with 0.5 U of elastase, 5 mg of HS, 200 U of heparin, 150 μg of CpG DNA, or PBS with a total volume of 250 μl. One hour and 3 hours after injection, 100-μl blood samples were collected from the tail vein. Cell supernatants and serum samples were immediately frozen at −20° C. until analysis. Concentrations of TNF-α were analyzed by enzyme-linked sandwich ELISA (R&D Systems, Minneapolis, Minn.).

Assay [2] addresses T1, TLR4 (Mus musculus, UniProt Q9JHF9+Q9QUK6).
T1 sequence (Q9QUK6 26-835): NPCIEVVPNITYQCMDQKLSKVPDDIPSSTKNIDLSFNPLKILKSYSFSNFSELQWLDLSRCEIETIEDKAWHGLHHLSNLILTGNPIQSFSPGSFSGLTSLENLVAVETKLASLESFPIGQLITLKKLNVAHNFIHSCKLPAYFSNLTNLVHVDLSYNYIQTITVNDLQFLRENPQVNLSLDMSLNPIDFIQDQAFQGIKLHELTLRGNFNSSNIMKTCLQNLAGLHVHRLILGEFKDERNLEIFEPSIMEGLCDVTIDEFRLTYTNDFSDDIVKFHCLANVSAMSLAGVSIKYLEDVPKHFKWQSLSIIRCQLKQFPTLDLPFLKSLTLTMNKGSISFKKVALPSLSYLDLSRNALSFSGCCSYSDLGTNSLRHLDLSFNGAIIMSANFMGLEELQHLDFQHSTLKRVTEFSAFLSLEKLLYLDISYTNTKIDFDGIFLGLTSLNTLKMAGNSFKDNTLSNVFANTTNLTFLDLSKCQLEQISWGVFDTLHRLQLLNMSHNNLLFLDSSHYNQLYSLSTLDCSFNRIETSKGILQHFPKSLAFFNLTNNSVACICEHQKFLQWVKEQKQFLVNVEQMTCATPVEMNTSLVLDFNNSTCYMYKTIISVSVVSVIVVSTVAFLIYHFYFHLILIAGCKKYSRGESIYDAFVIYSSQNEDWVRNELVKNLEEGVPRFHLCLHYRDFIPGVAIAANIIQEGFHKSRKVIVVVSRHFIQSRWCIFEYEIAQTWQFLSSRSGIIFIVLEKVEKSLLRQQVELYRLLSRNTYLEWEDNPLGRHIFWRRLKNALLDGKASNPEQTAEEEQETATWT
T1 sequence (Q9JHF9 19-160): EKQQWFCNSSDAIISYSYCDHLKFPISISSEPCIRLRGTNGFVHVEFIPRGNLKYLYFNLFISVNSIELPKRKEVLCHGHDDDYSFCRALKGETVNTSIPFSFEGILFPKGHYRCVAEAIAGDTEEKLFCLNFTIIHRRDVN
Briefly: TNF-α secretion by dendritic cells (APC) cocultured with PAEC, ELISA. The assay is classed as cell-based. As to conditions: cocultures of PAEC and murine APCs, TLR4-positive or -negative. On the procedure:
Cell Isolation and Culture. Dendritic cells were generated from murine bone marrow cultures as previously described (Kodaira et al. (2000) J. Immunol. 165:1599). At day 6 or 7 of culture, nonadherent cells and loosely adherent proliferating dendritic cell aggregates were harvested for analysis or stimulation. PAEC were cultured to confluence and their identity was confirmed as previously described (Ryan and Maxwell (1986) J. Tissue Cult. Methods 10:3).
Cell Culture Stimulation. Dendritic cells (2×10^6 per ml) cocultured with confluent monolayers of PAEC in 96-well plates were stimulated with 10 μg/ml chondroitin sulfate, 500 ng/ml CpG DNA, 10 ng/ml LPS, 10 μg/ml HS, 50 μg/ml zymosan, or PBS, unless otherwise indicated. To control for purity, agonists were pretreated with END-X B15, or mixed with Limulus anti-LPS factor before stimulation of cells, as indicated. In some experiments, agonists were boiled before use for 60 minutes at 100° C.
Cytokine Quantification. Age-matched female mice were injected in the peritoneum with 0.5 U of elastase, 5 mg of HS, 200 U of heparin, 150 μg of CpG DNA, or PBS with a total volume of 250 μl. One hour and 3 hours after injection, 100-μl blood samples were collected from the tail vein. […] Concentrations of TNF-α were analyzed by enzyme-linked sandwich ELISA (R&D Systems, Minneapolis, Minn.). […]

A short description of assay [3]: Loss of HS from spleen tissue after intrasplenic injection (immunopathology). The assay is classed as in vivo, mice. As to conditions: within 5 hours of injection. On the procedure: Immunopathology. After intraperitoneal (i.p.) injection of ketamine and xylazine, murine spleens were directly visualized through an incision in the lateral abdominal wall and injected with 100 μl of PBS containing 0.1 U of elastase or PBS alone. Five hours later, the spleen was harvested and pieces snap-frozen. Tissue sections were prepared and stained as previously described (Dempsey et al. supra) with the several modifications. In particular, secondary and tertiary antibodies were mouse serum (Jackson ImmunoResearch Laboratories, West Grove, Pa.) preabsorbed and diluted in M.O.M. diluent (Vector Laboratories, Burlingame, Calif.). Fluorescent images were converted to grayscale using SPOT software (Diagnostic Instruments, Sterling Heights, Mich.).
To determine whether elastase liberates HS in vivo, spleen tissues were harvested from mice that had been injected intrasplenically with the enzyme, and the tissues were tested for the presence of HS. […] Thus, pancreatic elastase can induce loss of HS proteoglycan from tissues in vivo.

The mark [4] stands for this setting: TLR4-mutant mice, up to 3 hours.
[5] abbreviates: wild-type mice, 1 hour after treatment.

Turning to “elastase: pancreatic elastase (Calbiochem; type IV porcine pancreatic elastase, Sigma-Aldrich), protease that cleaves ECM proteins”, the “Serum TNF-α” value was “not detectable” with TLR4 [1] (setting [4]) and “high serum levels of TNF-α” in the assay on TLR4 [1] (setting [5]). Besides, in the assay with TLR4 [2], the “TNF-α secretion by APC” value was “secreted TNF-α in a TLR4-dependent manner”. For the same substance, in assay [3], the “Loss of HS from blood vessels of spleen” value is listed as “lost HS from blood vessels at the injection site”.

As for heparan sulfate [HS], the figures for the “Serum TNF-α” value with TLR4 [1] (setting [4]) and in the assay with TLR4 [1] (setting [5]) were “not detectable” and “high serum levels of TNF-α”, respectively. Besides, the “TNF-α secretion by APC” value on TLR4 [2] is given as “secreted TNF-α in a TLR4-dependent manner”.
